Patent publication US20070048356A1, “Antimicrobial treatment of nonwoven materials for infection control” (priority 2005, published 2007)

What was measured:
Test in all cases: Dynamic Shake Flask (based on ASTM E 2149-01) on treated nonwoven
Format in all cases: cell-based
A. Niger (ATCC 16404) = conditions: Table 14, Spunbond
Experimental: (§1) The test organisms are grown in 25 mL appropriate broth medium for about 24±2 hours at 37±2° C. in a wrist action shaker. The bacterial culture is then transferred by placing about 100 μL aliquot in 25 mL of broth and grown again for about 24±2 hours at 37±2° C. The organisms are then centrifuged and washed three times with phosphate buffered saline (PBS). The organisms are then suspended in PBS to obtain an inoculum of approximately 1×10^8 CFU/mL.
(§2) The test articles and control swatches are exposed to an ultraviolet light source for about 5-10 minutes per side before testing to assure that the swatches are sanitized prior to inoculation with the bacteria. The test materials are brought into contact with a known population of test bacteria from the inoculum for a specified period of time. A sample is then plated at the end of the exposure time to enumerate the surviving bacteria. The log10 reduction form the control material and the original population is calculated using the following formula: Log10 Control*−Log10 CFU/swatch Test Article=Log10 Reduction
[…] This buffer solution contains a chemical to de-activate or “neutralize” the antimicrobial agent to (a) stop the active agent from killing the organisms after the designated time period and (b) to prevent artifacts that may arise from exposing the microorganisms to the antimicrobial in solution rather than solely on the substrate. Because each chemical used as an antimicrobial agent is a little different (ie: cationic, nonionic, metal, etc), a different neutralizer was likely added in each case to shut off the antimicrobial at the desired end point of the experiment. […] The neutralizer employed may be selected from a list that is commonly used in the field. These include, non-ionic degtergents, Bisulphate, lecithin, leethen broth, thiosulfate, thioglycolate, and pH buffers, Method similar to those described in American Society for Testing and Materials, Standard Practices for Evaluating Inactivators of Antimicrobial Agents Used in Disinfectant, Sanitizer, Antiseptic, or Preserved Products, Amer. Soc. Testing Mat. E 1054-91 (1991) can be used.

C. Albicans (ATCC 10231) = conditions: Table 15, SMS
[1] = test system: P. aeruginosa (ATCC 9027); conditions: Table 13
Experimental: as §1, §2
[…] This buffer solution contains a chemical to de-activate or “neutralize” the antimicrobial agent to (a) stop the active agent from killing the organisms after the designated time period and (b) to prevent artifacts that may arise from exposing the microorganisms to the antimicrobial in solution rather than solely on the substrate. Because each chemical used as an antimicrobial agent is a little different (ie: cationic, nonionic, metal, etc), a different neutralizer was likely added in each case to shut off the antimicrobial at the desired end point of the experiment. […] The neutralizer employed may be selected from a list that is commonly used in the field. […] Testing Mat.

S. aureus (ATCC 6538) = conditions: Table 12

Substance: PG-Hydroxyethylcellulose Cocodimonium Chloride
- Dynamic Shake Flask Log10 Reduction (A. Niger (ATCC 16404); contact time 1 min): 0.00 Log10
- Dynamic Shake Flask Log10 Reduction (A. Niger (ATCC 16404); contact time 5 min): 0.01 Log10
- Dynamic Shake Flask Log10 Reduction (A. Niger (ATCC 16404); contact time 15 min): 0.07 Log10
- Dynamic Shake Flask Log10 Reduction (C. Albicans (ATCC 10231); contact time 1 min): 1.25 Log10
- Dynamic Shake Flask Log10 Reduction (C. Albicans (ATCC 10231); contact time 5 min): 2.12 Log10
- Dynamic Shake Flask Log10 Reduction (C. Albicans (ATCC 10231); contact time 15 min): 2.56 Log10
- Dynamic Shake Flask Log10 Reduction ([1]; Meltblown, contact time 1 min): 0.34 Log10
- Dynamic Shake Flask Log10 Reduction ([1]; Meltblown, contact time 5 min): 0.35 Log10
- Dynamic Shake Flask Log10 Reduction ([1]; Meltblown, contact time 15 min): 0.42 Log10
- Dynamic Shake Flask Log10 Reduction ([1]; SMS, contact time 1 min): 4 Log10
- Dynamic Shake Flask Log10 Reduction ([1]; SMS, contact time 5 min): 4 Log10
- Dynamic Shake Flask Log10 Reduction ([1]; SMS, contact time 15 min): 4 Log10
- Dynamic Shake Flask Log10 Reduction ([1]; Spunbond, contact time 1 min): 4 Log10
- Dynamic Shake Flask Log10 Reduction ([1]; Spunbond, contact time 5 min): 4 Log10
- Dynamic Shake Flask Log10 Reduction ([1]; Spunbond, contact time 15 min): 4 Log10
- Dynamic Shake Flask Log10 Reduction (S. aureus (ATCC 6538); Meltblown, contact time 1 min): 0.09 Log10
- Dynamic Shake Flask Log10 Reduction (S. aureus (ATCC 6538); Meltblown, contact time 5 min): 0.2 Log10
- Dynamic Shake Flask Log10 Reduction (S. aureus (ATCC 6538); Meltblown, contact time 15 min): 0.44 Log10
- Dynamic Shake Flask Log10 Reduction (S. aureus (ATCC 6538); SMS, contact time 1 min): 1.38 Log10
- Dynamic Shake Flask Log10 Reduction (S. aureus (ATCC 6538); SMS, contact time 5 min): 2.97 Log10
- Dynamic Shake Flask Log10 Reduction (S. aureus (ATCC 6538); SMS, contact time 15 min): 4 Log10
- Dynamic Shake Flask Log10 Reduction (S. aureus (ATCC 6538); Spunbond, contact time 1 min): 0.33 Log10
- Dynamic Shake Flask Log10 Reduction (S. aureus (ATCC 6538); Spunbond, contact time 5 min): 0.63 Log10
- Dynamic Shake Flask Log10 Reduction (S. aureus (ATCC 6538); Spunbond, contact time 15 min): 1.74 Log10

Substance: N-Alkyl Polyglycoside [1.0% Alkyl Polyglycoside]
- Dynamic Shake Flask Log10 Reduction (A. Niger (ATCC 16404); contact time 1 min): 0.64 Log10
- Dynamic Shake Flask Log10 Reduction (A. Niger (ATCC 16404); contact time 5 min): 0.53 Log10
- Dynamic Shake Flask Log10 Reduction (A. Niger (ATCC 16404); contact time 15 min): 0.50 Log10
- Dynamic Shake Flask Log10 Reduction (C. Albicans (ATCC 10231); contact time 1 min): 0.59 Log10
- Dynamic Shake Flask Log10 Reduction (C. Albicans (ATCC 10231); contact time 5 min): 0.08 Log10
- Dynamic Shake Flask Log10 Reduction (C. Albicans (ATCC 10231); contact time 15 min): 0.19 Log10
- Dynamic Shake Flask Log10 Reduction ([1]; Meltblown, contact time 1 min): 2.38 Log10
- Dynamic Shake Flask Log10 Reduction ([1]; Meltblown, contact time 5 min): 4 Log10
- Dynamic Shake Flask Log10 Reduction ([1]; Meltblown, contact time 15 min): 4 Log10
- Dynamic Shake Flask Log10 Reduction ([1]; SMS, contact time 1 min): 0.37 Log10
- Dynamic Shake Flask Log10 Reduction ([1]; SMS, contact time 5 min): 0.37 Log10
- Dynamic Shake Flask Log10 Reduction ([1]; SMS, contact time 15 min): 0.36 Log10
- Dynamic Shake Flask Log10 Reduction ([1]; Spunbond, contact time 1 min): 0.61 Log10
- Dynamic Shake Flask Log10 Reduction ([1]; Spunbond, contact time 5 min): 0.41 Log10
- Dynamic Shake Flask Log10 Reduction ([1]; Spunbond, contact time 15 min): 0.41 Log10
- Dynamic Shake Flask Log10 Reduction (S. aureus (ATCC 6538); Meltblown, contact time 1 min): 2.97 Log10
- Dynamic Shake Flask Log10 Reduction (S. aureus (ATCC 6538); Meltblown, contact time 5 min): 4 Log10
- Dynamic Shake Flask Log10 Reduction (S. aureus (ATCC 6538); Meltblown, contact time 15 min): 4 Log10
- Dynamic Shake Flask Log10 Reduction (S. aureus (ATCC 6538); SMS, contact time 1 min): 0 Log10
- Dynamic Shake Flask Log10 Reduction (S. aureus (ATCC 6538); SMS, contact time 5 min): 0 Log10
- Dynamic Shake Flask Log10 Reduction (S. aureus (ATCC 6538); SMS, contact time 15 min): 0 Log10
- Dynamic Shake Flask Log10 Reduction (S. aureus (ATCC 6538); Spunbond, contact time 1 min): 0 Log10
- Dynamic Shake Flask Log10 Reduction (S. aureus (ATCC 6538); Spunbond, contact time 5 min): 0 Log10
- Dynamic Shake Flask Log10 Reduction (S. aureus (ATCC 6538); Spunbond, contact time 15 min): 0 Log10

Substance: Chitosan glycolate [1.0% Chitosan]
- Dynamic Shake Flask Log10 Reduction (A. Niger (ATCC 16404); contact time 1 min): 0.11 Log10
- Dynamic Shake Flask Log10 Reduction (A. Niger (ATCC 16404); contact time 5 min): 0.27 Log10
- Dynamic Shake Flask Log10 Reduction (A. Niger (ATCC 16404); contact time 15 min): 0.31 Log10
- Dynamic Shake Flask Log10 Reduction (C. Albicans (ATCC 10231); contact time 1 min): 0.04 Log10
- Dynamic Shake Flask Log10 Reduction (C. Albicans (ATCC 10231); contact time 5 min): 0.13 Log10
- Dynamic Shake Flask Log10 Reduction (C. Albicans (ATCC 10231); contact time 15 min): 1 Log10
- Dynamic Shake Flask Log10 Reduction ([1]; Meltblown, contact time 1 min): 0.5 Log10
- Dynamic Shake Flask Log10 Reduction ([1]; Meltblown, contact time 5 min): 0.62 Log10
- Dynamic Shake Flask Log10 Reduction ([1]; Meltblown, contact time 15 min): 0.61 Log10
- Dynamic Shake Flask Log10 Reduction ([1]; SMS, contact time 1 min): 0.81 Log10
- Dynamic Shake Flask Log10 Reduction ([1]; SMS, contact time 5 min): 4 Log10
- Dynamic Shake Flask Log10 Reduction ([1]; SMS, contact time 15 min): 4 Log10
- Dynamic Shake Flask Log10 Reduction ([1]; Spunbond, contact time 1 min): 0.47 Log10
- Dynamic Shake Flask Log10 Reduction ([1]; Spunbond, contact time 5 min): 2.16 Log10
- Dynamic Shake Flask Log10 Reduction ([1]; Spunbond, contact time 15 min): 4 Log10
- Dynamic Shake Flask Log10 Reduction (S. aureus (ATCC 6538); Meltblown, contact time 1 min): 0.26 Log10
- Dynamic Shake Flask Log10 Reduction (S. aureus (ATCC 6538); Meltblown, contact time 5 min): 0.21 Log10
- Dynamic Shake Flask Log10 Reduction (S. aureus (ATCC 6538); Meltblown, contact time 15 min): 0.25 Log10
- Dynamic Shake Flask Log10 Reduction (S. aureus (ATCC 6538); SMS, contact time 1 min): 0.03 Log10
- Dynamic Shake Flask Log10 Reduction (S. aureus (ATCC 6538); SMS, contact time 5 min): 0.57 Log10
- Dynamic Shake Flask Log10 Reduction (S. aureus (ATCC 6538); SMS, contact time 15 min): 1.03 Log10
- Dynamic Shake Flask Log10 Reduction (S. aureus (ATCC 6538); Spunbond, contact time 1 min): 0 Log10
- Dynamic Shake Flask Log10 Reduction (S. aureus (ATCC 6538); Spunbond, contact time 5 min): 0.64 Log10
- Dynamic Shake Flask Log10 Reduction (S. aureus (ATCC 6538); Spunbond, contact time 15 min): 2.05 Log10
